Experimental data reported in patent publication US20030191323A1, “Hypoglycemic agent” (Ajinomoto Co., Inc., priority 2000, published 2003).

What was measured:
[1] = tested on: Rat skeletal muscle cell strain L6 cells; assay: Effect of accelerating the glucose uptake in cultured skeletal muscle cells ([3H]-2-deoxyglucose uptake); assay type: cell-based; conditions: 10 min, 10 μM compound, cultured overnight, 2DG uptake in L6 myotubes, 37° C. 10 minutes, compared with the control group
Description: Effect of accelerating the glucose uptake in cultured skeletal muscle cells: Method: Rat skeletal muscle cell strain “L6 cells” in a confluent state was cultured in DME medium containing 2% of fetal calf serum for one week to differentiate into myotubes. The medium was replaced with the DME medium containing a compound synthesized in each of the above Reference Examples. After culturing overnight followed by the thorough washing with HEPES buffer solution, an HEPES buffer solution containing 37 kBq/ml of 10 μM [3H]-2-deoxyglucose (2DG) was added thereto. After the culture at 37° C. for 10 minutes, the radioactivity of 2DG transmigrated into the cells was determined. The effect (%) of each compound on 2DG uptake was determined as compared with that in the control group.

[2] = tested on: non-insulin-dependent diabetes model mice (KK mice); assay: Hypoglycemic effect on non-insulin-dependent diabetes model mice (KK mice); assay type: in vivo; conditions: Mus musculus, 168 h; 30 mg/kg twice a day for one week, KK mice 8 weeks old; fasted overnight; calculated on the basis of blood glucose level (100) in the control group
Description: Hypoglycemic Effect on Non-Insulin-Dependent Diabetes Model Mice (KK Mice)
Method: A compound (30 mg/kg) was administered to non-insulin-dependent diabetes model mice (8 weeks old) twice a day for one week. After final administration, the mice were fasted overnight and then the blood glucose concentration of each mouse was determined. The hypoglycemic effect of the compound was calculated on the basis of the blood glucose level (100) in the control group.

SMILES	activity at 10 µM [1]	inhibition in vivo at 30 mg/kg [2]	melting point
CCCCCC(=O)NS(=O)(=O)c1ccccc1NC(=O)c1ccc(C#Cc2ccccc2)cc1 [compound 49, N-[2-(4-Phenylethynylbenzamido)benzenesulfonyl]hexanamide]	212%	10.3%	175 to 176 °C
CCCSCC(=O)NS(=O)(=O)c1ccccc1NC(=O)c1ccc(C#Cc2ccccc2)cc1 [compound 58, 4-Phenylethynyl-N-(2-(2-propylthioacetylamino)sulfonylphenyl]benzamide]		22.7%	186 to 188 °C
CCCCCC(=O)NS(=O)(=O)c1ccccc1NC(=O)c1ccc(C#Cc2cccc(C(F)(F)F)c2)cc1 [compound 60, 4-(3-Trifluoromethyl)phenylethynyl-N-(2-hexanoylaminosulfonylphenyl)benzamide]	246%	51.1%	194 to 196 °C
CC(=O)CCCC(=O)NS(=O)(=O)c1ccccc1NC(=O)c1ccc(C#Cc2cccc(C(F)(F)F)c2)cc1 [compound 61, 4-(3-Trifluoromethyl)phenylethynyl-N-(2-(5-ketohexanoylamino)sulfonylphenyl)benzamide]		65.7%	169 to 171 °C
CCCOCC(=O)NS(=O)(=O)c1ccccc1NC(=O)c1ccc(C#Cc2cccc(C(F)(F)F)c2)cc1 [compound 62, 4-(3-Trifluoromethyl)phenylethynyl-N-(2-(2-propyloxyacetylamino)sulfonylphenyl)benzamide]		60.9%	175 to 177 °C
CCCCCC(=O)NS(=O)(=O)c1ccccc1NC(=O)c1ccc(C#Cc2ccc(C(F)(F)F)cc2)cc1 [compound 64, 4-(4-Trifluoromethyl)phenylethynyl-N-(2-hexanoylaminosulfonylphenyl)benzamide]	204%	34.5%	210 to 212 °C
CCCCCC(=O)NS(=O)(=O)c1ccccc1NC(=O)c1ccc(C#Cc2ccc(OC(F)(F)F)cc2)cc1 [compound 66, 4-(4-Trifluoromethoxyl)phenylethynyl-N-(2-hexanoylaminosulfonylphenyl)benzamide]	94%	28.2%	197 to 199 °C
CC(=O)CCCC(=O)NS(=O)(=O)c1ccccc1NC(=O)c1ccc(C#Cc2ccc(OC(F)(F)F)cc2)cc1 [compound 67, 4-(4-Trifluoromethoxyl)phenylethynyl-N-(2-(5-ketohexanoylamino)sulfonylphenyl)benzamide]		40.2%	204 to 205 °C
CCCCCC(=O)NS(=O)(=O)c1ccccc1NC(=O)c1ccc(C#Cc2ccc(F)cc2)cc1 [compound 69, 4-(4-Fluoro)phenylethynyl-N-(2-hexanoylaminosulfonylphenyl)benzamide]	240%	27.7%	183 to 186 °C
CC(=O)CCCC(=O)NS(=O)(=O)c1ccccc1NC(=O)c1ccc(C#Cc2ccc(F)cc2)cc1 [compound 70, 4-(4-Fluoro)phenylethynyl-N-(2-(5-ketohexanoylamino)sulfonylphenyl)benzamide]		30.5%	179 to 181 °C
CCCCCC(=O)NS(=O)(=O)c1ccccc1NC(=O)c1ccc(C#Cc2cccc(F)c2)cc1 [compound 72, 4-(3-Fluoro)phenylethynyl-N-(2-hexanoylaminosulfonylphenyl)benzamide]	279%	9.2%	183 to 186 °C
